From patent publication US20230404981A1, “[…] ACTIVE COMPOUND FORMULATIONS” (priority 2020, published 2023)

Assay: in vivo
Details: Sprague Dawley, rat; for AUC(0-t) / Cmax / Tmax: im
Method: An in vivo pharmacology study was completed in Sprague Dawley rats over 14 days, to determine the drug release kinetics of 50, 100, or 200 mg/kg doses of niclosamide administered as intramuscular injections of an aqueous dispersion of niclosamide nanoparticles.
Each animal received two 0.2 mL injections, one in each thigh, of one of the 25, 50, or 100 mg/kg of niclosamide dispersions for a total dose of 50, 100, or 200 mg/kg of niclosamide in each animal.
Blood samples were taken via tail vein bleed 1, 3, 6 and 24 hours post dose followed by bleeds at day 3, 4, 7 and 14. Niclosamide concentrations from the plasma samples were quantified utilising a previously validated liquid chromatography mass spectrometry (LCMS) method.

concentration at 24 h: 140000 ng/g
AUC(0-t) (50 mg/kg): 24800 ng·h/mL
Cmax (50 mg/kg): 1410 ng/mL
Tmax (50 mg/kg): 2.5 h
AUC(0-t) (100 mg/kg): 47500 ng·h/mL
Cmax (100 mg/kg): 2040 ng/mL
Tmax (100 mg/kg): 2 h
AUC(0-t) (200 mg/kg): 58300 ng·h/mL
Cmax (200 mg/kg): 3130 ng/mL
Tmax (200 mg/kg): 3 h
SMILES: O=C(Nc1ccc([N+](=O)[O-])cc1Cl)c1cc(Cl)ccc1O [niclosamide, 5-chloro-N-(2-chloro-4-nitrophenyl)-2-hydroxybenzamide]
